Values quoted from earlier work in US20090298802A1, “Pharmaceutical Compositions” (priority 2005, published 2009).

Columns and labels:
patients with COPD = details: 516 patients with COPD, after 26 weeks of dosing, versus placebo recipients
guinea-pig model of COPD = details: COPD induced by cigarette smoke exposure

For `O=C(Nc1c(Cl)cncc1Cl)c1ccc(OC(F)F)c(OCC2CC2)c1` [Roflumilast], the tolerability profile (patients with COPD) is given as “equivalent to that seen in placebo recipients”.
In the case of `CCOc1ccc(-c2nc(-c3cccc(C(=O)O)n3)cs2)cc1OCC` [Tetomilast], the neutrophilia (guinea-pig model of COPD) is given as “improvements” and the specific airway resistance (guinea-pig model of COPD) is given as “improvements”.
